Results: patent US20240109917A1 (ACTELION PHARMACEUTICALS LTD, priority 2020, published 2024)

Legend:
[1] = biological target: Tb-labeled inactive PDGFRβ (Homo sapiens (Human), UniProt P09619); assay: PDGFRβ LanthaScreen Assay; format: binding; conditions: read-out: PDGFR Lantha IC50
[2] = biological target: VEGFR2, unphosphorylated (Homo sapiens (Human), UniProt P35968); assay: VEGFR ADP GLO Assay; format: biochemical
[3] = biological target: His6-TEV-PDGFRβ (557-1016) (Homo sapiens (Human), UniProt P09619); assay: PDGFRβ HTRF Assay; format: biochemical; conditions: read-out: PDGFR HTRF IC50
Outline: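 HTRF KinEASE-TK readout (665/620 nm ratio) of TK-biotin substrate phosphorylation by His-tagged PDGFRβ kinase domain. Enzyme and inhibitor preincubated 30 min, then ATP/substrate added for 3 h at room temperature before 60 min EDTA quench/detection.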

Chain of His6-TEV-PDGFRβ (557-1016) (P09619 557-1016): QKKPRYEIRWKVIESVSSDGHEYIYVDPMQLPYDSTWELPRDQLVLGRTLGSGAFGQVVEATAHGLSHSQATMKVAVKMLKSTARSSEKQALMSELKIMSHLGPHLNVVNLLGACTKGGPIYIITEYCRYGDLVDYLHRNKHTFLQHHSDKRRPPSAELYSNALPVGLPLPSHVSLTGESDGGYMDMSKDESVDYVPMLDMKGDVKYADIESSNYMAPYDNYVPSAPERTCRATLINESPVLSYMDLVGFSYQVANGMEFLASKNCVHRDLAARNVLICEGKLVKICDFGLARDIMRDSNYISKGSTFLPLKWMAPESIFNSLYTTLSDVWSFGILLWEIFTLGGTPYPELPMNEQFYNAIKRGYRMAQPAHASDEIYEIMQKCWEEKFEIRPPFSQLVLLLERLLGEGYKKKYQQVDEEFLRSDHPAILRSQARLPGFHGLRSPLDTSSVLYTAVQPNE
Chain of Tb-labeled inactive PDGFRβ (P09619 33-1106): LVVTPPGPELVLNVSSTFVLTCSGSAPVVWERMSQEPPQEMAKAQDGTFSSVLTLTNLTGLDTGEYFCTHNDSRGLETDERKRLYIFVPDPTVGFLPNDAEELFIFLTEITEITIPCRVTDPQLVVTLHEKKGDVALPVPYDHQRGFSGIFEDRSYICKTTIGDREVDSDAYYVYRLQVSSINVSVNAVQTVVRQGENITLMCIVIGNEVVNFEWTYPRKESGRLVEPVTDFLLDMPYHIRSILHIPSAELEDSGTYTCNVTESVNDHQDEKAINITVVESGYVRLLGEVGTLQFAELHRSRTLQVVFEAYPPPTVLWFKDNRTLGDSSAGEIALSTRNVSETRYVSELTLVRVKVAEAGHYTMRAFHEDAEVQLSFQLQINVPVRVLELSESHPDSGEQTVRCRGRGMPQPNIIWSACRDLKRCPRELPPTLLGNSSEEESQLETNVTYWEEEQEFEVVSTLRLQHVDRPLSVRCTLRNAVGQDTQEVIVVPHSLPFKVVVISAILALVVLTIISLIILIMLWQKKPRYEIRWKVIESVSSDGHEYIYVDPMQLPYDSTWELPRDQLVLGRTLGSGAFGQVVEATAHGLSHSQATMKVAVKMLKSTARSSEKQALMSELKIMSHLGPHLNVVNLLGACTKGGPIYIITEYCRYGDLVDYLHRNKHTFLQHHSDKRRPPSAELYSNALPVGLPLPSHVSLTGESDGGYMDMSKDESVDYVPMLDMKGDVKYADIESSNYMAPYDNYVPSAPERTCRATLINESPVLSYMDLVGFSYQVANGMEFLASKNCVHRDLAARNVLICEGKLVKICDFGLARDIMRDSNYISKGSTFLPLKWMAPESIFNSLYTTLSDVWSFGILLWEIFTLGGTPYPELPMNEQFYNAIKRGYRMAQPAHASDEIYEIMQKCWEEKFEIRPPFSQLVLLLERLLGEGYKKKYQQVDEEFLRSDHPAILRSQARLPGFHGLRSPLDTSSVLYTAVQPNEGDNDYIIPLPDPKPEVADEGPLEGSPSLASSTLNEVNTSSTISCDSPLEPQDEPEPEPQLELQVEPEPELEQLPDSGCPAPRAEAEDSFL
Chain of VEGFR2, unphosphorylated (P35968 20-1356): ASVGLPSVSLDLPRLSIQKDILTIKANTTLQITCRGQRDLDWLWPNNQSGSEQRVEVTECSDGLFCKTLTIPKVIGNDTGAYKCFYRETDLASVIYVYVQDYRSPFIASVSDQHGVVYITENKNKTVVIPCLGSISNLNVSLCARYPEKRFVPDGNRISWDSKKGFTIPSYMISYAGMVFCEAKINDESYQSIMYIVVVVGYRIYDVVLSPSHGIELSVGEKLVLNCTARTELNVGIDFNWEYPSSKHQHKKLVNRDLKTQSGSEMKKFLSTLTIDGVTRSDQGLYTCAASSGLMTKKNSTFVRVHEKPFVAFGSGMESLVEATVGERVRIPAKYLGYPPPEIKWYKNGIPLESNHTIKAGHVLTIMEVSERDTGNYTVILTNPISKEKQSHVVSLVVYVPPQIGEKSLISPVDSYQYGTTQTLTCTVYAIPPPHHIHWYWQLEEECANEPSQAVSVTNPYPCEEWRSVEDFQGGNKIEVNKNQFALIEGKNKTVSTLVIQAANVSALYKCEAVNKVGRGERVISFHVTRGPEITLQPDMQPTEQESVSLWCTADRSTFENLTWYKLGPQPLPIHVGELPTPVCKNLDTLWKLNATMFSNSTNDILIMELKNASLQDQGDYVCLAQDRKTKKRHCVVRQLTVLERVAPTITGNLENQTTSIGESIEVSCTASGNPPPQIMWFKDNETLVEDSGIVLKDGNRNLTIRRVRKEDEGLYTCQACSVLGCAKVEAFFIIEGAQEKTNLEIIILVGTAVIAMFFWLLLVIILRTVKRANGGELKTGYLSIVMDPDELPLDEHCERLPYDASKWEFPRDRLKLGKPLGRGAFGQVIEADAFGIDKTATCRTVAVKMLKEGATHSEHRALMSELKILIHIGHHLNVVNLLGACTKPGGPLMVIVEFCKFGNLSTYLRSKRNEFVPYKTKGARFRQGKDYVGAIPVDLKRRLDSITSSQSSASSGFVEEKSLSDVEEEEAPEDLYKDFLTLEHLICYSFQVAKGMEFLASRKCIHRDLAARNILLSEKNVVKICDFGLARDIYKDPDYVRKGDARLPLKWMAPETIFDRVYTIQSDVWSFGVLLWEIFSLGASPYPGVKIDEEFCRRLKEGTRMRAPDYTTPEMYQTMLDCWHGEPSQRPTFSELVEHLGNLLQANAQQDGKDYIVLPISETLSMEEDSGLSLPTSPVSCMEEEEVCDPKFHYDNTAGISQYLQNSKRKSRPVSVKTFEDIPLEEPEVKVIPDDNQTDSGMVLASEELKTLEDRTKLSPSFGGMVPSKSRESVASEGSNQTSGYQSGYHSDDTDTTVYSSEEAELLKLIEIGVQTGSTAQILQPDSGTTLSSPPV

Structure (SMILES) | IC50 [1] | IC50 [2] | IC50 [3]
Cc1ncc(C(=O)N2CC2CNC(C)(C)C)cc1NC(=O)c1cnn2cc(-c3cccc4c3cnn4C)sc12 (stereo not drawn) [Example 239, N-(5-(2-((tert-butylamino)methyl)aziridine-1-carbonyl)-2-methylpyridin-3-yl)-2-(1-methyl-1H-indazol-4-yl)pyrazolo[5,1-b]thiazole-7-carboxamide] | 0.0787 µM | > 2.5 µM | 0.005 µM
Cc1ncc(C(=O)NCCN2CCCC2(C)C)cc1NC(=O)c1cnn2cc(-c3cncc(S(C)(=O)=O)c3)sc12 [Example 230, N-(5-((2-(2,2-dimethylpyrrolidin-1-yl)ethyl)carbamoyl)-2-methylpyridin-3-yl)-2-(5-(methylsulfonyl)pyridin-3-yl)pyrazolo[5,1-b]thiazole-7-carboxamide] | 0.0829 µM | > 2.5 µM | 0.0032 µM
Cc1ncc(C(=O)NCCN2C[C@H]3CC[C@@H]2C3)cc1NC(=O)c1cnn2cc(-c3cnn(C)c3C)sc12 [Example 208, N-(5-((2-((1R,4S)-2-azabicyclo[2.2.1]heptan-2-yl)ethyl)carbamoyl)-2-methylpyridin-3-yl)-2-(1,5-dimethyl-1H-pyrazol-4-yl)pyrazolo[5,1-b]thiazole-7-carboxamide] | 0.0043 µM | > 7.5 µM | 0.0003 µM
Cn1cc(-c2cn3ncc(C(=O)Nc4sc(C(=O)NCCN5CCCC56CCC6)cc4C#N)c3s2)cn1 [Example 206, N-(5-((2-(5-azaspiro[3.4]octan-5-yl)ethyl)carbamoyl)-3-cyanothiophen-2-yl)-2-(1-methyl-1H-pyrazol-4-yl)pyrazolo[5,1-b]thiazole-7-carboxamide] | > 3 µM | > 2.5 µM | 3.55 µM
Cc1cc(C(=O)NCCN2CCCC2(C)C)sc1NC(=O)c1cnn2cc(-c3cnn(C)c3)sc12 [Example 182, N-(5-((2-(2,2-dimethylpyrrolidin-1-yl)ethyl)carbamoyl)-3-methylthiophen-2-yl)-2-(1-methyl-1H-pyrazol-4-yl)pyrazolo[5,1-b]thiazole-7-carboxamide] | 1.98 µM | > 7.5 µM | 0.0241 µM
Cc1cc(C(=O)NCCN2CCCC2(C)C)sc1NC(=O)c1cnn2cc(-c3ccn(C)n3)sc12 [Example 188, N-(5-((2-(2,2-dimethylpyrrolidin-1-yl)ethyl)carbamoyl)-3-methylthiophen-2-yl)-2-(1-methyl-1H-pyrazol-3-yl)pyrazolo[5,1-b]thiazole-7-carboxamide] | 0.683 µM | > 7.5 µM | 0.0095 µM
Cc1ncc(C(=O)NCCN2CC3CCC2CC3)cc1NC(=O)c1cnn2cc(-c3cnn(C4CC4)c3)sc12 [Example 181, N-(5-((2-(2-azabicyclo[2.2.2]octan-2-yl)ethyl)carbamoyl)-2-methylpyridin-3-yl)-2-(1-cyclopropyl-1H-pyrazol-4-yl)pyrazolo[5,1-b]thiazole-7-carboxamide] | 0.0023 µM | > 7.5 µM | 0.0002 µM
Cc1ncc(C(=O)NCCN2CCCC2)cc1NC(=O)c1cnn2cc(-c3cn(C)nc3C)sc12 [Example 218, 2-(1,3-Dimethyl-1H-pyrazol-4-yl)-N-(2-methyl-5-((2-(pyrrolidin-1-yl)ethyl)carbamoyl)pyridin-3-yl)pyrazolo[5,1-b]thiazole-7-carboxamide] | 0.0036 µM | > 7.5 µM | 0.0003 µM
Cc1ncc(C(=O)NC2CN(C(C)(C)C)C2)cc1NC(=O)c1cnn2cc(-c3cccc4c3cnn4C)sc12 [Example 238, N-(5-((1-(tert-butyl)azetidin-3-yl)carbamoyl)-2-methylpyridin-3-yl)-2-(1-methyl-1H-indazol-4-yl)pyrazolo[5,1-b]thiazole-7-carboxamide] | 0.0075 µM | > 2.5 µM | 0.0004 µM
Cc1ncc(NC(=O)CN2CCCC23CC3)cc1NC(=O)c1cnn2cc(-c3cnn(C)c3)sc12 [Example 16, N-(5-(2-(4-azaspiro[2.4]heptan-4-yl)acetamido)-2-methylpyridin-3-yl)-2-(1-methyl-1H-pyrazol-4-yl)pyrazolo[5,1-b]thiazole-7-carboxamide] | 0.0051 µM | > 7.5 µM | 0.0005 µM
Cc1ncc(C(=O)NCCN2CC3CCC2CC3)cc1NC(=O)c1cnn2cc(-c3cnn(C(F)F)c3)sc12 [Example 180, N-(5-((2-(2-azabicyclo[2.2.2]octan-2-yl)ethyl)carbamoyl)-2-methylpyridin-3-yl)-2-(1-(difluoromethyl)-1H-pyrazol-4-yl)pyrazolo[5,1-b]thiazole-7-carboxamide] | 0.0061 µM | > 7.5 µM | 0.0004 µM
Cc1ncc(NC(=O)OCCN(C)C2CCCCC2)cc1NC(=O)c1cnn2cc(-c3cnn(C)c3)sc12 [Example 251, 2-(cyclohexyl(methyl)amino)ethyl (6-methyl-5-(2-(1-methyl-1H-pyrazol-4-yl)pyrazolo[5,1-b]thiazole-7-carboxamido)pyridin-3-yl)carbamate] | 0.0336 µM | > 7.5 µM | 0.0015 µM
Cc1ncc(C(=O)NCCN2CCCC2(C)C)cc1NC(=O)c1cnn2cc(-c3c(C)n[nH]c3C)sc12 [Example 231, 2-(3,5-Dimethyl-1H-pyrazol-4-yl)-N-(5-((2-(2,2-dimethylpyrrolidin-1-yl)ethyl)carbamoyl)-2-methylpyridin-3-yl)pyrazolo[5,1-b]thiazole-7-carboxamide] | 0.0033 µM | > 7.5 µM | 0.0004 µM
Cc1ncc(NC(=O)CN2CCN(C)CC2)cc1NC(=O)c1cnn2cc(-c3cnn(C)c3)sc12 [Example 232, 2-(1-methyl-1H-pyrazol-4-yl)-N-(2-methyl-5-(2-(4-methylpiperazin-1-yl)acetamido)pyridin-3-yl)pyrazolo[5,1-b]thiazole-7-carboxamide] | 0.751 µM | > 7.5 µM | 0.0259 µM
Cc1cc(C(=O)NCCN2CC[C@H](O)C2)sc1NC(=O)c1cnn2cc(-c3cnn(C)c3)sc12 [Example 195, (S)—N-(5-((2-(3-hydroxypyrrolidin-1-yl)ethyl)carbamoyl)-3-methylthiophen-2-yl)-2-(1-methyl-1H-pyrazol-4-yl)pyrazolo[5,1-b]thiazole-7-carboxamide] | > 3 µM | > 7.5 µM | 0.157 µM
Cc1ncc(C(=O)NC[C@H]2CCCN2CCO)cc1NC(=O)c1cnn2cc(-c3cnn(C)c3)sc12 [Example 236, (R)—N-(5-(((1-(2-hydroxyethyl)pyrrolidin-2-yl)methyl)carbamoyl)-2-methylpyridin-3-yl)-2-(1-methyl-1H-pyrazol-4-yl)pyrazolo[5,1-b]thiazole-7-carboxamide] | 0.0836 µM | > 2.5 µM | 0.0021 µM
Cc1cc(C(=O)NCCN2[C@H](C)CCC[C@@H]2C)sc1NC(=O)c1cnn2cc(-c3cnn(C)c3)sc12 [Example 198, N-(5-((2-((2S,6R)-2,6-dimethylpiperidin-1-yl)ethyl)carbamoyl)-3-methylthiophen-2-yl)-2-(1-methyl-1H-pyrazol-4-yl)pyrazolo[5,1-b]thiazole-7-carboxamide] | 0.111 µM | > 7.5 µM | 0.002 µM
COc1ncccc1-c1cn2ncc(C(=O)Nc3cc(NC(=O)CN4CCCC4(C)C)cnc3C)c2s1 [Example 233, N-(5-(2-(2,2-dimethylpyrrolidin-1-yl)acetamido)-2-methylpyridin-3-yl)-2-(2-methoxypyridin-3-yl)pyrazolo[5,1-b]thiazole-7-carboxamide] | 0.0011 µM | > 7.5 µM | 0.0002 µM
Cc1cc(C(=O)NCCN2CC3CCC2CC3)sc1NC(=O)c1cnn2cc(-c3cnn(C)c3)sc12 [Example 199, N-(5-((2-(2-azabicyclo[2.2.2]octan-2-yl)ethyl)carbamoyl)-3-methylthiophen-2-yl)-2-(1-methyl-1H-pyrazol-4-yl)pyrazolo[5,1-b]thiazole-7-carboxamide] | 0.125 µM | > 7.5 µM | 0.002 µM
Cc1ncc(C(=O)NCCN2CCCC2)cc1NC(=O)c1cnn2cc(-c3cn(C)nc3C(F)(F)F)sc12 [Example 227, 2-(1-Methyl-3-(trifluoromethyl)-1H-pyrazol-4-yl)-N-(2-methyl-5-((2-(pyrrolidin-1-yl)ethyl)carbamoyl)pyridin-3-yl)pyrazolo[5,1-b]thiazole-7-carboxamide] | 0.0213 µM | > 0.833 µM | 0.0009 µM
Cc1ncc(NC(=O)CCN2CCCC2(C)C)cc1NC(=O)c1cnn2cc(-c3cccc4c3cnn4C)sc12 [Example 241, N-(5-(3-(2,2-dimethylpyrrolidin-1-yl)propanamido)-2-methylpyridin-3-yl)-2-(1-methyl-1H-indazol-4-yl)pyrazolo[5,1-b]thiazole-7-carboxamide] | 0.0007 µM | > 2.5 µM | 0.0001 µM
Cc1cc(C(=O)NCCN2CCC(C)(C)C2)sc1NC(=O)c1cnn2cc(-c3cnn(C)c3)sc12 [Example 189, N-(5-((2-(3,3-dimethylpyrrolidin-1-yl)ethyl)carbamoyl)-3-methylthiophen-2-yl)-2-(1-methyl-1H-pyrazol-4-yl)pyrazolo[5,1-b]thiazole-7-carboxamide] | 0.319 µM | > 7.5 µM | 0.0073 µM
Cc1cc(C(=O)NCCN2CCc3ccccc3C2)sc1NC(=O)c1cnn2cc(-c3cnn(C)c3)sc12 [Example 204, N-(5-((2-(3,4-dihydroisoquinolin-2 (1H)-yl)ethyl)carbamoyl)-3-methylthiophen-2-yl)-2-(1-methyl-1H-pyrazol-4-yl)pyrazolo[5,1-b]thiazole-7-carboxamide] | 0.42 µM | > 7.5 µM | 0.0192 µM
